Converted amounts (≈) assume the structure as drawn. The source made the active and inactive calls. No cut-off for these calls is given here. Positions of bridges follow the written chain, without caps; N, C: chain ends. Residues, ends and D or L forms follow the SMILES beside them.
How the values were obtained:
Enterococcus faecium = experiment: Antimicrobial activity against vancomycin-resistant Enterococcus faecium ATCC 51559 after 18 hrs; assay type: functional; conditions: ATCC 51559, 18 h
Pseudomonas aeruginosa [1] = experiment: Antimicrobial activity against Pseudomonas aeruginosa KCTC 1637 after 18 hrs; assay type: functional; conditions: KCTC 1637, 18 h
Pseudomonas aeruginosa [2] = experiment: Antimicrobial activity against multidrug-resistant Pseudomonas aeruginosa CCARM 2095 after 18 hrs; assay type: functional; conditions: CCARM 2095, 18 h
[3] = tested on: Staphylococcus epidermidis; experiment: Antimicrobial activity against Staphylococcus epidermidis KCTC 1617 after 18 hrs; assay type: functional; conditions: KCTC 1617, 18 h
Bacillus subtilis = experiment: Antimicrobial activity against Bacillus subtilis KCTC 3068 after 18 hrs; assay type: functional; conditions: KCTC 3068, 18 h
Salmonella typhimurium = experiment: Antimicrobial activity against Salmonella typhimurium KCTC 1926 after 18 hrs; assay type: functional, Salmonella enterica subsp. enterica serovar Typhimurium; conditions: Salmonella enterica, KCTC 1926, 18 h
Staphylococcus aureus [4] = experiment: Induction of membrane permeabilization in Staphylococcus aureus KCTC 1621 at 2 to 8 times MIC concentration up to 300 secs by SYTOX green uptake assay; assay type: functional, organism-based
Escherichia coli [5] = experiment: Antimicrobial activity against Escherichia coli KCTC 1682 after 18 hrs; assay type: functional; conditions: KCTC 1682, 18 h
Staphylococcus aureus [6] = experiment: Antimicrobial activity against methicillin-resistant Staphylococcus aureus CCARM 3089 after 18 hrs; assay type: functional; conditions: CCARM 3089, 18 h
Staphylococcus aureus [7] = experiment: Induction of cytoplasmic membrane depolarization in Staphylococcus aureus KCTC 1621 at 2 to 8 times MIC concentration by DiSC3(5)-dye based fluorescence spectrophotometry; assay type: functional, organism-based
Staphylococcus aureus [8] = experiment: Antimicrobial activity against methicillin-resistant Staphylococcus aureus CCARM 3090 after 18 hrs; assay type: functional; conditions: CCARM 3090, 18 h
Staphylococcus aureus [9] = experiment: Antimicrobial activity against methicillin-resistant Staphylococcus aureus CCARM 3095 after 18 hrs; assay type: functional; conditions: CCARM 3095, 18 h
Staphylococcus aureus [10] = experiment: Antimicrobial activity against Staphylococcus aureus KCTC 1621 after 18 hrs; assay type: functional; conditions: KCTC 1621, 18 h
[11] = Hemolytic activity in sheep RBC assessed as free hemoglobin level up to 256 uM by ELISA relative to control; assay type: ADME, cell-based, Ovis aries, Erythrocyte; conditions: sheep red blood cells (erythrocytes), read-out: Activity
Staphylococcus aureus [12] = experiment: Bactericidal activity against Staphylococcus aureus KCTC 1621 at MIC concentration after 30 mins by time kill assay; assay type: functional, organism-based
DNA = experiment: Binding affinity to Escherichia coli pBR322 DNA assessed as inhibition of DNA migration at 32 uM after 1 hr by agarose gel electrophoresis and UV spectroscopy; assay type: nucleic-acid assay
Escherichia coli [13] = experiment: Induction of membrane permeabilization in Escherichia coli KCTC 1682 assessed as PI-positive cells at 25 uM after 1 to 2 hrs by propidium iodide-staining based flow cytometry (reference value: 2.36%); assay type: functional
RAW264.7 = experiment: Cytotoxicity against mouse RAW264.7 cells at 512 uM after 48 hrs by MTT assay; assay type: cell-based; conditions: raw264.7, 48 h
Escherichia coli [14] = experiment: Bactericidal activity against Escherichia coli KCTC 1682 at MIC concentration after 120 to 180 mins by time kill assay; assay type: functional, organism-based

SMILES | MIC (Enterococcus faecium) [µM] | MIC (Pseudomonas aeruginosa [1]) [µM] | MIC (Pseudomonas aeruginosa [2]) [µM] | MIC [3] [µM] | MIC (Bacillus subtilis) [µM] | MIC (Salmonella typhimurium) [µM] | Activity (Staphylococcus aureus [4]) | MIC (Escherichia coli [5]) [µM] | MIC (Staphylococcus aureus [6]) [µM] | Activity (Staphylococcus aureus [7]) | MIC (Staphylococcus aureus [8]) [µM] | MIC (Staphylococcus aureus [9]) [µM] | MIC (Staphylococcus aureus [10]) [µM] | hemolysis [11] [%] | Activity (Staphylococcus aureus [12]) | Activity (DNA) | Activity (Escherichia coli [13]) [%] | Activity (RAW264.7) | Activity (Escherichia coli [14])
CC[C@H](C)[C@H](NC(=O)[C@@H](NC(=O)[C@H](Cc1cnc[nH]1)NC(=O)[C@H](CCCNC(=N)N)NC(=O)[C@H](C)NC(=O)[C@H](CCCNC(=N)N)NC(=O)[C@H](CC(C)C)NC(=O)[C@H](CO)NC(=O)[C@H](C)NC(=O)[C@H](CC(C)C)NC(=O)[C@@H](N)CC(N)=O)[C@@H](C)O)C(=O)N1CCC[C@H]1C(=O)N[C@@H](CCC(N)=O)C(=O)N[C@@H](CCCNC(=N)N)C(=O)N[C@@H](CCCCN)C(=O)N[C@@H](Cc1ccccc1)C(=O)NCC(=O)N[C@@H](CCCNC(=N)N)C(=O)N[C@@H](CCCNC(=N)N)C(N)=O (H-NLASLRARHTIPQRKFGRR-NH2) | 50 (≈ 114 µg/mL) | 6.3 (≈ 14.3 µg/mL) | 25 (≈ 56.9 µg/mL) | 6.3 (≈ 14.3 µg/mL) | 6.3 (≈ 14.3 µg/mL) | 6.3 (≈ 14.3 µg/mL) | inactive | 6.3 (≈ 14.3 µg/mL) | 12.5 (≈ 28.5 µg/mL) | inactive | 25 (≈ 56.9 µg/mL) | 25 (≈ 56.9 µg/mL) | 12.5 (≈ 28.5 µg/mL) |  |  |  |  |  | 
CC[C@H](C)[C@H](NC(=O)[C@@H](NC(=O)[C@H](Cc1cnc[nH]1)NC(=O)[C@H](CCCNC(=N)N)NC(=O)[C@H](C)NC(=O)[C@H](CCCNC(=N)N)NC(=O)[C@H](CC(C)C)NC(=O)[C@H](CO)NC(=O)[C@H](C)NC(=O)[C@H](CS)NC(=O)[C@H](CC(C)C)NC(=O)[C@@H](N)CC(N)=O)[C@@H](C)O)C(=O)N1CCC[C@H]1C(=O)N[C@@H](CCC(N)=O)C(=O)N[C@@H](CS)C(=O)N[C@@H](CCCNC(=N)N)C(=O)N[C@@H](CCCCN)C(=O)N[C@@H](Cc1ccccc1)C(=O)NCC(=O)N[C@@H](CCCNC(=N)N)C(=O)N[C@@H](CCCNC(=N)N)C(N)=O (H-NLCASLRARHTIPQCRKFGRR-NH2) | 25 (≈ 62.1 µg/mL) | 12.5 (≈ 31 µg/mL) | 50 (≈ 124 µg/mL) | 12.5 (≈ 31 µg/mL) | 12.5 (≈ 31 µg/mL) | 12.5 (≈ 31 µg/mL) | inactive | 12.5 (≈ 31 µg/mL) | 12.5 (≈ 31 µg/mL) | inactive | 25 (≈ 62.1 µg/mL) | 12.5 (≈ 31 µg/mL) | 12.5 (≈ 31 µg/mL) |  |  |  |  |  | 
CC[C@H](C)[C@@H]1NC(=O)[C@H]([C@@H](C)O)NC(=O)[C@H](Cc2cnc[nH]2)NC(=O)[C@H](CCCNC(=N)N)NC(=O)[C@H](C)NC(=O)[C@H](CCCNC(=N)N)NC(=O)[C@H](CC(C)C)NC(=O)[C@H](CO)NC(=O)[C@H](C)NC(=O)[C@@H](NC(=O)[C@H](CC(C)C)NC(=O)[C@@H](N)CC(N)=O)CSSC[C@@H](C(=O)N[C@@H](CCCNC(=N)N)C(=O)N[C@@H](CCCCN)C(=O)N[C@@H](Cc2ccccc2)C(=O)NCC(=O)N[C@@H](CCCNC(=N)N)C(=O)N[C@@H](CCCNC(=N)N)C(N)=O)NC(=O)[C@H](CCC(N)=O)NC(=O)[C@@H]2CCCN2C1=O (H-NLCASLRARHTIPQCRKFGRR-NH2; disulfide 3-15) | 25 (≈ 62 µg/mL) | 12.5 (≈ 31 µg/mL) | 50 (≈ 124 µg/mL) | 12.5 (≈ 31 µg/mL) | 12.5 (≈ 31 µg/mL) | 12.5 (≈ 31 µg/mL) | inactive | 12.5 (≈ 31 µg/mL) | 12.5 (≈ 31 µg/mL) | inactive | 25 (≈ 62 µg/mL) | 12.5 (≈ 31 µg/mL) | 12.5 (≈ 31 µg/mL) | < 1 | Active | Active | 6.39 | Non-Toxic | Active
